Laboratory results published in patent publication US20210101874A1, “MICROBIOCIDAL OXADIAZOLE DERIVATIVES” (SYNGENTA PARTICIPATIONS AG, priority 2017, published 2021).

Assays:
[1] = tested on: Puccinia recondita f. sp. Tritici; experiment: Puccinia recondita f. sp. tritici / wheat / leaf disc preventative (brown rust); type: in vivo; settings: foliar, 200 ppm in the applied formulation, wheat leaf segments cv. Kanzler, inoculated 1 day after application, compared to untreated, assessed 7 to 9 days after application, read-out: disease control
Protocol: Leaf disks or leaf segments of various plant species are cut from plants grown in a greenhouse. The cut leaf disks or segments are placed in multiwell plates (24-well format) onto water agar. The leaf disks are sprayed with a test solution before (preventative) or after (curative) inoculation. Compounds to be tested are prepared as DMSO solutions (max. 10 mg/ml) which are diluted to the appropriate concentration with 0.025% Tween20 just before spraying. The inoculated leaf disks or segments are incubated under defined conditions (temperature, relative humidity, light, etc.) according to the respective test system. A single evaluation of disease level is carried out 3 to 14 days after inoculation, depending on the pathosystem. Percent disease control relative to the untreated check leaf disks or segments is then calculated. Wheat leaf segments cv. Kanzler were placed on agar in multiwell plates (24-well format) and sprayed with the formulated test compound diluted in water. The leaf disks were inoculated with a spore suspension of the fungus 1 day after application. The inoculated leaf segments were incubated at 19° C. and 75% relative humidity (rh) under a light regime of 12 hours light/12 hours darkness in a climate cabinet and the activity of a compound was assessed as percent disease control compared to untreated when an appropriate level of disease damage appears in untreated check leaf segments (7 to 9 days after application). The following compounds at 200 ppm in the applied formulation give at least 80% disease control in this test when compared to untreated control leaf disks under the same conditions, which show extensive disease development.

[2] = tested on: Puccinia recondita f. sp. Tritici; experiment: Puccinia recondita f. sp. tritici / wheat / leaf disc curative (brown rust); type: in vivo; settings: foliar, 200 ppm in the applied formulation, wheat leaf segments cv. Kanzler, applied 1 day after inoculation, compared to untreated, assessed 6 to 8 days after application, read-out: disease control
Protocol: Leaf disks or leaf segments of various plant species are cut from plants grown in a greenhouse. The cut leaf disks or segments are placed in multiwell plates (24-well format) onto water agar. The leaf disks are sprayed with a test solution before (preventative) or after (curative) inoculation. Compounds to be tested are prepared as DMSO solutions (max. 10 mg/ml) which are diluted to the appropriate concentration with 0.025% Tween20 just before spraying. The inoculated leaf disks or segments are incubated under defined conditions (temperature, relative humidity, light, etc.) according to the respective test system. A single evaluation of disease level is carried out 3 to 14 days after inoculation, depending on the pathosystem. Percent disease control relative to the untreated check leaf disks or segments is then calculated.
Wheat leaf segments cv. Kanzler are placed on agar in multiwell plates (24-well format). The leaf segments are then inoculated with a spore suspension of the fungus. Plates were stored in darkness at 19° C. and 75% relative humidity. The formulated test compound diluted in water was applied 1 day after inoculation. The leaf segments were incubated at 19° C. and 75% relative humidity under a light regime of 12 hours light/12 hours darkness in a climate cabinet and the activity of a compound was assessed as percent disease control compared to untreated when an appropriate level of disease damage appears in untreated check leaf segments (6 to 8 days after application).
The following compounds at 200 ppm in the applied formulation give at least 80% disease control in this test when compared to untreated control leaf disks under the same conditions, which show extensive disease development.

[3] = tested on: Glomerella lagenarium (Colletotrichum lagenarium); experiment: Glomerella lagenarium (Colletotrichum lagenarium) liquid culture / cucumber / preventative (anthracnose); type: cell-based; settings: Colletotrichum orbiculare; 20 ppm in the applied formulation; conidia in PDB nutrient broth, 24° C.; 3 to 4 days after application; compared to untreated; read-out: disease control (inhibition of growth measured photometrically)
Protocol: Mycelia fragments or conidia suspensions of a fungus prepared either freshly from liquid cultures of the fungus or from cryogenic storage, are directly mixed into nutrient broth. DMSO solutions of the test compound (max. 10 mg/ml) are diluted with 0.025% Tween20 by a factor of 50 and 10 µl of this solution is pipetted into a microtiter plate (96-well format). The nutrient broth containing the fungal spores/mycelia fragments is then added to give an end concentration of the tested compound. The test plates are incubated in the dark at 24° C. and 96% relative humidity. The inhibition of fungal growth is determined photometrically after 2 to 7 days, depending on the pathosystem, and percent antifungal activity relative to the untreated check is calculated. Conidia of the fungus from cryogenic storage are directly mixed into nutrient broth (PDB—potato dextrose broth). After placing a (DMSO) solution of test compound into a microtiter plate (96-well format), the nutrient broth containing the fungal spores is added. The test plates are incubated at 24° C. and the inhibition of growth is measured photometrically 3 to 4 days after application. The following compounds at 20 ppm in the applied formulation give at least 80% disease control in this test when compared to untreated control under the same conditions, which show extensive disease development.

Cn1ccc(S(=O)(=O)NCc2ccc(-c3noc(C(F)(F)F)n3)c(F)c2)n1 [Compound 3.14, N-[[3-fluoro-4-[5-(trifluoromethyl)-1,2,4-oxadiazol-3-yl]phenyl]methyl]-1-methyl-pyrazole-3-sulfonamide] was tested, and the pest or weed control at 200 ppm [1] was at least 80%, the pest or weed control at 200 ppm [2] was at least 80% and the inhibition at 20 ppm [3] was at least 80%.

Work on CCN(Cc1ccc(-c2noc(C(F)(F)F)n2)cc1)S(=O)(=O)N(C)C [Compound 1.64, N-(dimethylsulfamoyl)-N-[[4-[5-(trifluoromethyl)-1,2,4-oxadiazol-3-yl]phenyl]methyl] ethanamine] yielded a pest or weed control at 200 ppm [1] of at least 80%, a pest or weed control at 200 ppm [2] of at least 80% and an inhibition at 20 ppm [3] of at least 80%.

In the case of CS(=O)(=O)NCc1ccc(-c2noc(C(F)(F)F)n2)cc1F [Compound 2.27, N-[[2-fluoro-4-[5-(trifluoromethyl)-1,2,4-oxadiazol-3-yl]phenyl]methyl] methanesulfon-amide], the pest or weed control at 200 ppm [1] is reported as at least 80%, the pest or weed control at 200 ppm [2] is reported as at least 80% and the inhibition at 20 ppm [3] is reported as at least 80%.

C/C=C/S(=O)(=O)N(CC)Cc1ccc(-c2noc(C(F)(F)F)n2)cc1 [Compound 1.39, (E)-N-ethyl-N-[[4-[5-(trifluoromethyl)-1,2,4-oxadiazol-3-yl]phenyl]methyl] prop-1-ene-1-sulfonamide] showed a pest or weed control at 200 ppm [1] of at least 80%, a pest or weed control at 200 ppm [2] of at least 80% and an inhibition at 20 ppm [3] of at least 80%.

C=CCS(=O)(=O)NCc1ccc(-c2noc(C(F)(F)F)n2)cc1 [Compound 2.7, N-[[4-[5-(trifluoromethyl)-1,2,4-oxadiazol-3-yl]phenyl]methyl] prop-2-ene-1-sulfonamide] was tested, and the pest or weed control at 200 ppm [1] was at least 80%, the pest or weed control at 200 ppm [2] was at least 80% and the inhibition at 20 ppm [3] was at least 80%.

With C=CCS(=O)(=O)N(C)Cc1ccc(-c2noc(C(F)(F)F)n2)cc1 [Compound 1.46, N-methyl-N-[[4-[5-(trifluoromethyl)-1,2,4-oxadiazol-3-yl]phenyl]methyl] prop-2-ene-1-sulfonamide] the pest or weed control at 200 ppm [1] was at least 80%, the pest or weed control at 200 ppm [2] was at least 80% and the inhibition at 20 ppm [3] was at least 80%.

O=S(=O)(NCc1ccc(-c2noc(C(F)(F)F)n2)cc1F)C1CC1 [Compound 3.29, N-[[2-fluoro-4-[5-(trifluoromethyl)-1,2,4-oxadiazol-3-yl]phenyl]methyl] cyclopropanesulfon-amide] showed a pest or weed control at 200 ppm [1] of at least 80%, a pest or weed control at 200 ppm [2] of at least 80% and an inhibition at 20 ppm [3] of at least 80%.

CCN(Cc1ccc(-c2noc(C(F)(F)F)n2)cc1)S(=O)(=O)CC1CCOC1 (stereo not shown) [Compound 1.35, N-ethyl-1-tetrahydrofuran-3-yl-N-[[4-[5-(trifluoromethyl)-1,2,4-oxadiazol-3-yl]phenyl]methyl] methanesulfonamide] gave a pest or weed control at 200 ppm [1] of at least 80%, a pest or weed control at 200 ppm [2] of at least 80% and an inhibition at 20 ppm [3] of at least 80%.

O=S(=O)(NCc1ccc(-c2noc(C(F)(F)F)n2)cc1F)N1CCCC1 [Compound 3.27, N-[[2-fluoro-4-[5-(trifluoromethyl)-1,2,4-oxadiazol-3-yl]phenyl]methyl] pyrrolidine-1-sulfonamide] showed a pest or weed control at 200 ppm [1] of at least 80%, a pest or weed control at 200 ppm [2] of at least 80% and an inhibition at 20 ppm [3] of at least 80%.

CNS(=O)(=O)NCc1ccc(-c2noc(C(F)(F)F)n2)cc1 [Compound 2.14, N-(methylsulfamoyl)-1-[4-[5-(trifluoromethyl)-1,2,4-oxadiazol-3-yl]phenyl] methanamine] gave a pest or weed control at 200 ppm [1] of at least 80%, a pest or weed control at 200 ppm [2] of at least 80% and an inhibition at 20 ppm [3] of at least 80%.

C/C=C/S(=O)(=O)NCc1ccc(-c2noc(C(F)(F)F)n2)cc1F [Compound 2.36, (E)-N-[[2-fluoro-4-[5-(trifluoromethyl)-1,2,4-oxadiazol-3-yl]phenyl]methyl] prop-1-ene-1-sulfonamide] showed a pest or weed control at 200 ppm [1] of at least 80%, a pest or weed control at 200 ppm [2] of at least 80% and an inhibition at 20 ppm [3] of at least 80%.

Molecule CC(C)N(Cc1ccc(-c2noc(C(F)(F)F)n2)cc1)S(=O)(=O)N(C)C [Compound 1.100, N-(dimethylsulfamoyl)-N-[[4-[5-(trifluoromethyl)-1,2,4-oxadiazol-3-yl]phenyl]methyl] propan-2-amine] has a pest or weed control at 200 ppm [1] of at least 80%, a pest or weed control at 200 ppm [2] of at least 80% and an inhibition at 20 ppm [3] of at least 80%.

CCS(=O)(=O)NCc1ccc(-c2noc(C(F)(F)F)n2)cc1F [Compound 2.25, N-[[2-fluoro-4-[5-(trifluoromethyl)-1,2,4-oxadiazol-3-yl]phenyl]methyl] ethanesulfon-amide] gave a pest or weed control at 200 ppm [1] of at least 80%, a pest or weed control at 200 ppm [2] of at least 80% and an inhibition at 20 ppm [3] of at least 80%.

For COC(=O)CCS(=O)(=O)NCc1ccc(-c2noc(C(F)(F)F)n2)c(F)c1 [Compound 2.16, methyl 3-[[3-fluoro-4-[5-(trifluoromethyl)-1,2,4-oxadiazol-3-yl]phenyl]methyl-sulfamoyl] propanoate], the pest or weed control at 200 ppm [1] was at least 80%, the pest or weed control at 200 ppm [2] was at least 80% and the inhibition at 20 ppm [3] was at least 80%.

Work on COCCS(=O)(=O)N(Cc1ccc(-c2noc(C(F)(F)F)n2)cc1)C(C)C [Compound 1.83, N-isopropyl-2-methoxy-N-[[4-[5-(trifluoromethyl)-1,2,4-oxadiazol-3-yl]phenyl]methyl] ethanesulfonamide] yielded a pest or weed control at 200 ppm [1] of at least 80%, a pest or weed control at 200 ppm [2] of at least 80% and an inhibition at 20 ppm [3] of at least 80%.

In the case of COC(=O)CCS(=O)(=O)NCc1ccc(-c2noc(C(F)(F)F)n2)cc1 [Compound 2.8, methyl 3-[[4-[5-(trifluoromethyl)-1,2,4-oxadiazol-3-yl]phenyl]methyl-sulfamoyl] propanoate], the pest or weed control at 200 ppm [1] is reported as at least 80%, the pest or weed control at 200 ppm [2] is reported as at least 80% and the inhibition at 20 ppm [3] is reported as at least 80%.

CC(C)N(Cc1ccc(-c2noc(C(F)(F)F)n2)cc1)S(C)(=O)=O [Compound 1.86, N-isopropyl-N-[[4-[5-(trifluoromethyl)-1,2,4-oxadiazol-3-yl]phenyl]methyl] methanesulfonamide] was tested, and the pest or weed control at 200 ppm [1] was at least 80%, the pest or weed control at 200 ppm [2] was at least 80% and the inhibition at 20 ppm [3] was at least 80%.

With CCCN(Cc1ccc(-c2noc(C(F)(F)F)n2)cc1)S(=O)(=O)N(C)C [Compound 1.81, N-(dimethylsulfamoyl)-N-[[4-[5-(trifluoromethyl)-1,2,4-oxadiazol-3-yl]phenyl]methyl] propan-1-amine] the pest or weed control at 200 ppm [2] was at least 80% and the inhibition at 20 ppm [3] was at least 80%.

C#CCNS(=O)(=O)N(Cc1ccc(-c2noc(C(F)(F)F)n2)cc1)C1CC1 [Compound 1.20, 3-[4-[[cyclopropyl(prop-2-ynylsulfamoyl)amino]methyl]phenyl]-5-(trifluoromethyl)-1,2,4-oxadiazole] gave a pest or weed control at 200 ppm [2] of at least 80% and an inhibition at 20 ppm [3] of at least 80%.

CC(C)S(=O)(=O)NCc1ccc(-c2noc(C(F)(F)F)n2)cc1F [Compound 2.21, N-[[2-fluoro-4-[5-(trifluoromethyl)-1,2,4-oxadiazol-3-yl]phenyl]methyl] propane-2-sulfonamide] showed a pest or weed control at 200 ppm [2] of at least 80%.

With C=CCS(=O)(=O)N(CCC)Cc1ccc(-c2noc(C(F)(F)F)n2)cc1 [Compound 1.70, N-propyl-N-[[4-[5-(trifluoromethyl)-1,2,4-oxadiazol-3-yl]phenyl]methyl] prop-2-ene-1-sulfonamide] the pest or weed control at 200 ppm [2] was at least 80% and the inhibition at 20 ppm [3] was at least 80%.
